For 17 compounds, EC50 results are on record in patent US10738062B2, “Chromane-substituted tetracyclic compounds and uses thereof for the treatment of viral diseases” (Merck Sharp & Dohme Corp., priority 2016, dated 2020).

SMILES strings stand for the structures. pEC50: −log10 of the molar value. Read-outs that look alike come from different tables or passages of the source.

Design in all cases: species or system Hepatitis C virus
The subject of assay [1] is HCV replicon 2B. As to the kind of experiment: Cell-based HCV replicon assay (Replicon Assay A), replicon 2B. To be noted: replicon RNA by real time PCR, day 3. The method, then:
(§1) To measure cell-based anti-HCV activity of compounds of the present invention, two complimentary assays were employed using various replicons. In the first assay (“Replicon Assay A”), replicon cells were seeded at 2000 cells/well in 384-well 384-well flat bottom tissue culture treated clear bottom plate (Corning 3707) in the presence of the test compound. Various concentrations of test compound, typically in 10 serial dilutions, were added to the assay mixture, with the starting concentration ranging from 333.3 nM to 1.667 nM. The final concentration of DMSO was 0.5%. Fetal bovine serum was 5%, in the assay media. Cells were harvested on day 3 by removing media and washing the cells with a suitable wash buffer. The cells were lysed with the addition of 1× Qiagen lysis buffer (Cat #1062731). The replicon RNA level was measured using real time PCR (TaqMan® EZ RT-PCR, Applied Biosystems 403028) with the following primers and probes: […]
(§2) Cyclophilin RNA was used as endogenous control and was amplified in the same reaction as NS5B (multiplex PCR). The real-time RT-PCR reactions were run on ABI PRISM 7900HT Sequence Detection System using the following program: 50° C. for 2 minutes, 60° C. for 30 minutes, 95° C. for 5 minutes, 40 cycles of 94° C. for 20 sec, 55° C. for 1 minutes.
(§3) The amount of HCV replicon RNA per cell was quantified using a linear regression curve for a known nanogram (ng) amount of HCV replicon total RNA. This was established by plotting the Cycle Threshold values (Ct) from the Neo probe and primer set versus the log (ng) for each HCV replicon total RNA standard. The amount of HCV RNA for each replicon sample was calculated by taking the sample's Ct value, minus the line intercept, divided by the slope of the line. Similarly, the amount of Cyclophilin mRNA per cell was also quantified using a linear regression curve for a known nanogram (ng) amount of HCV replicon total RNA. Again, this was established by plotting the Cycle Threshold values (Ct) from the Cyclophilin probe and primer set versus the log (ng) for each HCV replicon total RNA standard.
(§4) The real-time RT-PCR reactions were run on ABI PRISM 7900HT or Viia7 Sequence Detection System using the following program: 48° C. for 30 minutes, 95° C. for 10 minutes, 40 cycles of 95° C. for 15 sec, 60° C. for 1 minutes. The 50% effective concentration (EC50) was the drug concentration necessary to achieve an increase in the cycle threshold (CT) of 1 over the projected baseline CT.
(§5) Data was obtained for various compounds of the present invention using the methods described in the Example above, and is presented in the table immediately below. EC50 data for replicons 1A, 1AY93H and 2B were obtained using Replicon Assay A and EC50 data for replicon 1B was obtained using Replicon Assay B.
Background: A replicon is a self-replicating genome or part of one, used to study replication in cells.

Assay [2] deals with HCV replicon 1A Y93H. As to the kind of experiment: Cell-based HCV replicon assay (Replicon Assay A), replicon 1AY93H. Particulars: read-out: EC50 replicon 1A Y93H; Replicon Assay A; replicon RNA by real time PCR, day 3. As for the experimental part:
as §1, §2, §3, §4, §5

Assay [3] relates to HCV replicon 1A. As to the kind of experiment: Cell-based HCV replicon assay (Replicon Assay A), replicon 1A. To be noted: replicon RNA by real time PCR, day 3. The method, then:
as §1, §2, §3, §4, §5

Where [4] appears, read: read-out: EC50 replicon 2B, Replicon Assay A.

In the case of `COC(=O)N[C@H](C(=O)N1CCC[C@H]1c1ncc(-c2cc(F)c3c(c2)OC(c2ccc4c(c2)CCCO4)n2c-3cc3cc(-c4cnc([C@@H]5CCCN5C(=O)[C@@H](NC(=O)OC)C(C)C)[nH]4)ccc32)[nH]1)C(C)C` (single isomer, unassigned) [Compound 23], the negative-log EC50 (pEC50) in assay [1] (setting [4]) is 8.29; in assay [2] it was 8.58; in assay [3] (Hepatitis C virus, 72 h) it was 11.70.

Take `COC(=O)N[C@H](C(=O)N1CCC[C@H]1c1ncc(-c2cc(F)c3c(c2)OC(c2ccc4c(c2)CCCO4)n2c-3cc3cc(-c4cnc([C@@H]5CCCN5C(=O)[C@@H](NC(=O)OC)C(C)C)[nH]4)ccc32)[nH]1)C(C)C` (single isomer, unassigned) [Compound 24]: the pEC50 in assay [1] (setting [4]) is 8.75; in assay [2], 9.55; in assay [3] it was 11.80.

Regarding `COC(=O)N[C@H](C(=O)N1CCC[C@H]1c1ncc(-c2cc(F)c3c(c2)OC(c2ccc4c(c2)CC2CC2(C)O4)n2c-3cc3cc(-c4cnc([C@@H]5CCCN5C(=O)[C@@H](NC(=O)OC)C(C)C)[nH]4)ccc32)[nH]1)C(C)C` (single isomer, unassigned) [Compound 25], the pEC50 is 8.42 in assay [1] (setting [4]); 8.33 in assay [2]; 11.43 in assay [3] (Hepatitis C virus, 72 h).

With `COC(=O)N[C@H](C(=O)N1CCC[C@H]1c1ncc(-c2cc(F)c3c(c2)OC(c2ccc4c(c2)CC2CC2(C)O4)n2c-3cc3cc(-c4cnc([C@@H]5CCCN5C(=O)[C@@H](NC(=O)OC)C(C)C)[nH]4)ccc32)[nH]1)C(C)C` (single isomer, unassigned) [Compound 26], the pEC50 in assay [1] (setting [4]) is 8.85; in assay [2], 9.46; in assay [3] it was 11.55.

For `COC(=O)N[C@H](C(=O)N1CCC[C@H]1c1ncc(-c2cc(F)c3c(c2)OC(c2ccc4c(c2)OC(C)(C)C4)n2c-3cc3cc(-c4cnc([C@@H]5CCCN5C(=O)[C@@H](NC(=O)OC)C(C)C)[nH]4)ccc32)[nH]1)C(C)C` (single isomer, unassigned) [Compound 27], the negative-log EC50 (pEC50) was 8.83 in assay [1] (setting [4]); 8.96 in assay [2]; 11.85 in assay [3] (Hepatitis C virus, 72 h).

Consider `COC(=O)N[C@H](C(=O)N1CCC[C@H]1c1ncc(-c2cc(F)c3c(c2)OC(c2ccc4c(c2)CCCO4)n2c-3cc3cc(-c4cnc([C@@H]5CCCN5C(=O)[C@@H](NC(=O)OC)C5CCOCC5)[nH]4)ccc32)[nH]1)C(C)C` (single isomer, unassigned) [Compound 36], for which the pEC50 in assay [1] (setting [4]) was 9.38; in assay [2] it was 9.37; in assay [3], 11.68.

Turning to `COC(=O)N[C@H](C(=O)N1CCC[C@H]1c1ncc(-c2cc(F)c3c(c2)OC(c2ccc4c(c2)CCCO4)n2c-3cc3cc(-c4cnc([C@@H]5C[C@H]6C[C@H]6N5C(=O)[C@@H](NC(=O)OC)C(C)C)[nH]4)ccc32)[nH]1)C(C)C` (single isomer, unassigned) [Compound 45], the pEC50 was 8.28 in assay [1] (Hepatitis C virus, 72 h, read-out: EC50 replicon 2B, Replicon Assay A); 9.92 in assay [2]; 12.00 in assay [3].

In the case of `COC(=O)N[C@H](C(=O)N1CCC[C@H]1c1ncc(-c2cc(F)c3c(c2)OC(c2ccc4c(c2)CCCO4)n2c-3cc3cc(-c4cnc([C@@H]5C[C@H]6C[C@H]6N5C(=O)[C@@H](NC(=O)OC)C(C)C)[nH]4)ccc32)[nH]1)C(C)C` (single isomer, unassigned) [Compound 46], the pEC50 in assay [1] (setting [4]) is 8.11; in assay [2], 8.38; in assay [3], 11.59.

With `COC(=O)N[C@H](C(=O)N1CCC[C@H]1c1ncc(-c2ccc3c(c2)OC(c2ccc4c(c2)OCCC4)n2c-3cc3cc(-c4cnc([C@@H]5C[C@H]6C[C@H]6N5C(=O)[C@@H](NC(=O)OC)C(C)C)[nH]4)ccc32)[nH]1)C(C)C` (single isomer, unassigned) [Compound 49], the pEC50 in assay [1] (setting [4]) was 9.09; in assay [2] it was 8.61; in assay [3] (Hepatitis C virus, 72 h), 11.80.

With `COC(=O)NC(C(=O)N1CCC[C@H]1c1ncc(-c2ccc3c(c2)cc2n3C(c3ccc4c(c3)CCC(C)O4)Oc3cc(-c4cnc([C@@H]5CCCN5C(=O)[C@@H](NC(=O)OC)C(C)C)[nH]4)cc(F)c3-2)[nH]1)C1C[C@@H](C)O[C@@H](C)C1` (single isomer, unassigned) [Compound 55], the pEC50 in assay [1] (setting [4]) was 8.90; in assay [2], 8.73; in assay [3] (Hepatitis C virus, 72 h), 11.72.

With `COC(=O)NC(C(=O)N1CCC[C@H]1c1ncc(-c2ccc3c(c2)cc2n3C(c3ccc4c(c3)CCC(C)O4)Oc3cc(-c4cnc([C@@H]5CCCN5C(=O)[C@@H](NC(=O)OC)C(C)C)[nH]4)cc(F)c3-2)[nH]1)C1C[C@@H](C)O[C@@H](C)C1` (single isomer, unassigned) [Compound 56], the pEC50 was 9.54 in assay [1] (setting [4]), 9.94 in assay [2] and 11.62 in assay [3].

For the compound `COC(=O)NC(C(=O)N1CCC[C@H]1c1ncc(-c2ccc3c(c2)cc2n3C(c3ccc4c(c3)OC(C)CC4)Oc3cc(-c4cnc([C@@H]5CCCN5C(=O)[C@@H](NC(=O)OC)C(C)C)[nH]4)cc(F)c3-2)[nH]1)C1C[C@@H](C)O[C@@H](C)C1` (single isomer, unassigned) [Compound 57], the negative logarithm of the EC50 (pEC50) in assay [1] (setting [4]) is 9.48; in assay [2], 9.16; in assay [3] (Hepatitis C virus, 72 h), 11.70.

`COC(=O)NC(C(=O)N1CCC[C@H]1c1ncc(-c2ccc3c(c2)cc2n3C(c3ccc4c(c3)OC(C)CC4)Oc3cc(-c4cnc([C@@H]5CCCN5C(=O)[C@@H](NC(=O)OC)C(C)C)[nH]4)cc(F)c3-2)[nH]1)C1C[C@@H](C)O[C@@H](C)C1` (single isomer, unassigned) [Compound 58]: the pEC50 is 9.39 in assay [1] (setting [4]), 8.96 in assay [2] and 11.66 in assay [3].

Regarding `COC(=O)NC(C(=O)N1CCC[C@H]1c1ncc(-c2ccc3c(c2)cc2n3C(c3ccc4c(c3)OC(C)CC4)Oc3cc(-c4cnc([C@@H]5CCCN5C(=O)[C@@H](NC(=O)OC)C(C)C)[nH]4)cc(F)c3-2)[nH]1)C1CCOC(C)(C)C1` (single isomer, unassigned) [Compound 61], the negative-log EC50 (pEC50) in assay [1] (setting [4]) was 9.67; in assay [2], 8.83; in assay [3] (Hepatitis C virus, 72 h) it was 11.64.

As for `COC(=O)NC(C(=O)N1CCC[C@H]1c1ncc(-c2ccc3c(c2)cc2n3C(c3ccc4c(c3)OC(C)CC4)Oc3cc(-c4cnc([C@@H]5CCCN5C(=O)[C@@H](NC(=O)OC)C(C)C)[nH]4)cc(F)c3-2)[nH]1)C1CCOC(C)(C)C1` (single isomer, unassigned) [Compound 62], the negative-log EC50 (pEC50) is 9.60 in assay [1] (setting [4]), 9.29 in assay [2] and 11.72 in assay [3].

For `COC(=O)NC(C(=O)N1[C@@H]2C[C@@H]2C[C@H]1c1ncc(-c2ccc3c(c2)cc2n3C(c3ccc4c(c3)CCCO4)Oc3cc(-c4cnc([C@@H]5CCCN5C(=O)[C@@H](NC(=O)OC)C(C)C)[nH]4)cc(F)c3-2)[nH]1)C1C[C@@H](C)O[C@@H](C)C1` (single isomer, unassigned) [Compound 66], the pEC50 in assay [1] (setting [4]) is 8.63; in assay [2], 9.76; in assay [3], 11.47.

Consider `COC(=O)NC(C(=O)N1[C@@H]2C[C@@H]2C[C@H]1c1ncc(-c2ccc3c(c2)cc2n3C(c3ccc4c(c3)OCCC4)Oc3cc(-c4cnc([C@@H]5CCCN5C(=O)[C@@H](NC(=O)OC)C(C)C)[nH]4)cc(F)c3-2)[nH]1)C1C[C@@H](C)O[C@@H](C)C1` (single isomer, unassigned) [Compound 67], for which the pEC50 was 9.22 in assay [1] (setting [4]); 9.41 in assay [2]; 11.92 in assay [3] (Hepatitis C virus, 72 h).

As a reminder, the pEC50 is the negative decadic logarithm of the EC50, by convention in mol/L.
